Measurements as given in PubChem BioAssay (NCI).
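Compound exposure: 48 hours, 5 concentrations, 96-well plates. GI50 = concentration required for 50% inhibition of growth. Definition used: TGI = concentration required for complete inhibition of growth.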

Legend:
Experiment in all cases: growth of human tumour cells (NCI), 48 h
DMS 273 small cell lung = tested on: DMS 273 small cell lung
KM20L2 colon = tested on: KM20L2 colon
M19-MEL melanoma = tested on: M19-MEL melanoma
XF 498 CNS = tested on: XF 498 CNS
HS 578T breast = tested on: HS 578T breast
T-47D breast = tested on: T-47D breast
PC-3 prostate = tested on: PC-3 prostate
MDA-MB-435 = tested on: MDA-MB-435
MDA-MB-231 breast = tested on: MDA-MB-231 breast
DU-145 prostate = tested on: DU-145 prostate

| SMILES | TGI (DMS 273 small cell lung) | TGI (KM20L2 colon) | TGI (M19-MEL melanoma) | TGI (XF 498 CNS) | further results |
| --- | --- | --- | --- | --- | --- |
| O=C1NC(=S)NC(=O)C1=Cc1cc2c(cc1[N+](=O)[O-])OCO2 | > 100 µM | > 100 µM | > 100 µM | – | – |
| Clc1ccc(Cl)c2[s+]snc12 | > 62.7 µM | > 100 µM | > 100 µM | > 100 µM | – |
| N#CC(C(=O)/C(=N/N)C(C#N)c1ccc(Cl)cc1)c1ccc(Cl)cc1 (stereo not drawn) | – | > 100 µM | > 100 µM | > 100 µM | – |
| Cc1ccccc1-c1c(N)nc(NC#N)nc1C(=O)Nc1ccccc1 | > 100 µM | > 100 µM | > 100 µM | – | – |
| COC(=O)C1CC(C(=O)OC)c2nc3cc(C)ccc3nc21 (stereo not drawn) | > 100 µM | > 100 µM | > 100 µM | > 100 µM | – |
| COc1ccc(/C=N/N=C(\N)NO)cc1OC | > 100 µM | > 100 µM | > 100 µM | > 100 µM | – |
| CC(=O)Nc1ccc(C(=O)N2N=C(C)/C(=C/c3ccccc3O)C2=O)cc1 | > 100 µM | – | > 100 µM | > 100 µM | – |
| N#CC(NNC(=O)c1ccccc1O)c1ccc(O)cc1 (stereo not drawn) | > 100 µM | > 100 µM | > 100 µM | – | – |
| CCCCCCCCCC(=O)CC(=O)c1ccc(O)cc1O | 74.1 µM | > 100 µM | – | – | – |
| Cc1cccc(C(C)(C)C)c1NC(=O)C(=O)C(C(=O)/C=C\c1ccccc1)C1OC(=O)c2ccccc21 (stereo not drawn) | – | > 100 µM | > 100 µM | > 100 µM | – |
| [N-]=[N+]=NC(c1cn(C2CC(O)C(CO)O2)c(=O)[nH]c1=O)C(Br)I (stereo not drawn) | > 100 µM | > 100 µM | > 100 µM | – | – |
| COc1ccc2[nH]c(-c3ccccn3)cc(=O)c2c1 | – | > 100 µM | > 100 µM | – | GI50 (KM20L2 colon): 35.1 µM |
| Clc1ccc(-n2nnc(C3=NCCN3)c2-c2ccccc2)cc1 | > 100 µM | > 100 µM | > 100 µM | > 100 µM | – |
| CC(=O)CCCCCCCCCCCC[C@@H]1CC[C@H](C)[C@H](O)N1 | > 100 µM | > 100 µM | > 100 µM | > 100 µM | – |
| O=c1c2ccccc2c2ccccc2c(=O)n1-c1cc2c3ccccc3ccc2c2ccccc12 | – | – | – | – | TGI (HS 578T breast): > 100 µM; TGI (T-47D breast): > 100 µM; TGI (PC-3 prostate): > 100 µM; TGI (MDA-MB-435): > 100 µM; TGI (MDA-MB-231 breast): > 100 µM; TGI (DU-145 prostate): > 100 µM |
| COC(=O)C(CCS(=O)(=O)CC(=O)C(=O)Nc1cccc(C(C)=O)c1)C(=O)OC | > 100 µM | > 100 µM | > 100 µM | > 100 µM | – |
| Cc1ccc2c(c1)nc(C(=O)c1ccco1)c(C(F)(F)F)[n+]2[O-] | – | – | – | – | GI50 (HS 578T breast): 2.33 µM; TGI (HS 578T breast): 5.76 µM; GI50 (T-47D breast): 50.3 µM; TGI (T-47D breast): > 100 µM; GI50 (PC-3 prostate): 50.2 µM; TGI (PC-3 prostate): > 100 µM; GI50 (MDA-MB-435): > 100 µM; TGI (MDA-MB-435): > 100 µM; GI50 (MDA-MB-231 breast): > 100 µM; TGI (MDA-MB-231 breast): > 100 µM; GI50 (DU-145 prostate): > 100 µM; TGI (DU-145 prostate): > 100 µM |
